The record followed here is patent publication US20110021565A1, “PIPERIDINE DERIVATIVES AS NK3 ANTAGONISTS” (priority 2007, published 2011).

The test deals with T1, recombinant human NK3 receptor (Homo sapiens, UniProt P29371).
T1 construct: expressed in transfected cells; host or cells: HEK293 cells, transient expression; membrane preparation
T1 sequence (P29371 1-465): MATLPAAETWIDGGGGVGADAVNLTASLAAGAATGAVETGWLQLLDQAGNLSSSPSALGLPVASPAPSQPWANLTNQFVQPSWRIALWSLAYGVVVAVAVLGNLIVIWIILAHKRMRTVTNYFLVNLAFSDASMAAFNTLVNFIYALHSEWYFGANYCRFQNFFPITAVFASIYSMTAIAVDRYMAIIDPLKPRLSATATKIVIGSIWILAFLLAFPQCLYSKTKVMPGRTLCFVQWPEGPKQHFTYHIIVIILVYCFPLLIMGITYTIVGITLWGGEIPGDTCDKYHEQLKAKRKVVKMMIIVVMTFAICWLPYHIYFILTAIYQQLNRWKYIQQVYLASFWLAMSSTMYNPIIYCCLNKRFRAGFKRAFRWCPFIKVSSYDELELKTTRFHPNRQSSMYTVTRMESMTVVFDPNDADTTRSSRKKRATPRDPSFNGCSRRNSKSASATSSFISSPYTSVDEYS
In words: [3H]SR142801 competition binding assay. The method in brief: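 Membranes from HEK293 cells transiently expressing the receptor (5 μg protein/well) incubated 75 min at RT with [3H]SR142801 at its KD and 10 compound concentrations (0.0003-10 μM), in pH 7.4 Tris buffer with MnCl2, phosphoramidon and BSA. Nonspecific binding defined with 10 μM SB222200; bound radioactivity counted after filtration. Ki from IC50 via Cheng-Prusoff; duplicates.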

[1] abbreviates: [3H]SR142801, membranes of HEK293 cells transiently expressing recombinant human NK3 receptor, read-out: hNK3 Ki.
Where [2] appears, read: representative compounds, [3H]SR142801, HEK293 membranes, human NK3 receptor, read-out: Ki NK3 h.

For orientation: Ki means a dissociation constant, usually derived from enzyme kinetics or from competition with a known ligand.

Like-named read-outs stand apart in the source and are kept apart here.

Take `CN(Cc1ccccc1Cl)C(=O)C(CCN1CCC(NS(C)(=O)=O)CC1)c1ccc(Cl)c(Cl)c1` (centres unmarked) [Example 41, N-(2-Chloro-benzyl)-2-(3,4-dichloro-phenyl)-4-(4-methanesulfonyl-amino-piperidin-1-yl)-N-methyl-butyramide]: the Ki under setting [1] is 259 nM. Same read-out and setting: to `CS(=O)(=O)NC1CCN(CCC(C(=O)NCc2ccc(Cl)c(Cl)c2)c2ccc(Cl)c(Cl)c2)CC1` (centres unmarked) [Example 42, N-(3,4-Dichloro-benzyl)-2-(3,4-dichloro-phenyl)-4-(4-methanesulfonyl-amino-piperidin-1-yl)-butyramide] belongs 192 nM; to `CN(Cc1cccc(F)c1)C(=O)C(CCN1CCC(NS(C)(=O)=O)CC1)c1ccc(Cl)c(Cl)c1` (centres unmarked) [Example 43, 2-(3,4-Dichloro-phenyl)-N-(3-fluoro-benzyl)-4-(4-methanesulfonyl-amino-piperidin-1-yl)-N-methyl-butyramide], 254 nM. Still for that read-out and setting: to `CN(Cc1ccc(F)c(C(F)(F)F)c1)C(=O)C(CCN1CCC(NS(C)(=O)=O)CC1)c1ccc(Cl)c(Cl)c1` (centres unmarked) [Example 44, 2-(3,4-Dichloro-phenyl)-N-(4-fluoro-3-trifluoromethyl-benzyl)-4-(4-methanesulfonyl-amino-piperidin-1-yl)-N-methyl-butyramide] belongs 132 nM. As to `CN(Cc1ccc(C(F)(F)F)c(F)c1)C(=O)C(C)(CCN1CCC(N(C)S(C)(=O)=O)CC1)c1ccc(Cl)c(Cl)c1` (centres unmarked) [Example 45, 2-(3,4-Dichloro-phenyl)-N-(3-fluoro-4-trifluoromethyl-benzyl)-4-[4-(methanesulfonyl-methyl-amino)-piperidin-1-yl]-2,N-dimethyl-butyramide], the Ki reads like this: under setting [1], 8.5 nM; under setting [2], 8.5 nM.

As for `CN(Cc1ccc(Cl)c(C(F)(F)F)c1)C(=O)C(C)(CCN1CCC(N(C)S(C)(=O)=O)CC1)c1ccc(Cl)c(Cl)c1` (centres unmarked) [Example 46, N-(4-Chloro-3-trifluoromethyl-benzyl)-2-(3,4-dichloro-phenyl)-4-[4-(methanesulfonyl-methyl-amino)-piperidin-1-yl]-2,N-dimethyl-butyramide], the inhibition constant Ki stood at 2.4 nM under setting [1] and 2.4 nM under setting [2].

As to `CN(Cc1ccc(F)c(C(F)(F)F)c1)C(=O)C(C)(CCN1CCC(N(C)S(C)(=O)=O)CC1)c1ccc(Cl)c(Cl)c1` (centres unmarked) [Example 47, 2-(3,4-Dichloro-phenyl)-N-(4-fluoro-3-trifluoromethyl-benzyl)-4-[4-(methanesulfonyl-methyl-amino)-piperidin-1-yl]-2,N-dimethyl-butyramide], the Ki under setting [1] is 2.1 nM and the Ki under setting [2] was 2.1 nM.

Regarding `CN(Cc1ccc(Cl)c(Cl)c1)C(=O)C(C)(CCN1CCC(N(C)S(C)(=O)=O)CC1)c1ccc(Cl)c(Cl)c1` (centres unmarked) [Example 48, N-(3,4-Dichloro-benzyl)-2-(3,4-dichloro-phenyl)-4-[4-(methanesulfonyl-methyl-amino)-piperidin-1-yl]-2,N-dimethyl-butyramide], the Ki is, setting by setting: under setting [1], 3.6 nM; under setting [2], 3.6 nM. In the case of `CN(C1CCN(CCC(C)(C(=O)NC(c2ccccc2)C(F)(F)F)c2ccc(Cl)c(Cl)c2)CC1)S(C)(=O)=O` (centres unmarked) [Example 51, 2-(3,4-Dichloro-phenyl)-4-[4-(methanesulfonyl-methyl-amino)-piperidin-1-yl]-2-methyl-N-(2,2,2-trifluoro-1-phenyl-ethyl)-butyramide], the Ki under setting [1] came out at 18.7 nM.

Turning to `CN(C1CCN(CCC(C)(C(=O)NCc2ccccc2)c2ccc(Cl)c(Cl)c2)CC1)S(C)(=O)=O` (centres unmarked) [Example 52, N-Benzyl-2-(3,4-dichloro-phenyl)-4-[4-(methanesulfonyl-methyl-amino)-piperidin-1-yl]-2-methyl-butyramide], under setting [1], the Ki stood at 64.8 nM. On the same count and under the same terms, to `CN(Cc1ccc(C(F)(F)F)c(F)c1)C(=O)C(F)(CCN1CCC(N(C)S(C)(=O)=O)CC1)c1ccc(Cl)c(Cl)c1` (centres unmarked) [Example 53, 2-(3,4-Dichloro-phenyl)-2-fluoro-N-(3-fluoro-4-trifluoromethyl-benzyl)-4-[4-(methanesulfonyl-methyl-amino)-piperidin-1-yl]-N-methyl-butyramide] belongs 18.3 nM.

As for `CN(Cc1ccc(Cl)c(C(F)(F)F)c1)C(=O)C(F)(CCN1CCC(N(C)S(C)(=O)=O)CC1)c1ccc(Cl)c(Cl)c1` (centres unmarked) [Example 54, N-(4-Chloro-3-trifluoromethyl-benzyl)-2-(3,4-dichloro-phenyl)-2-fluoro-4-[4-(methanesulfonyl-methyl-amino)-piperidin-1-yl]-N-methyl-butyramide], the Ki under setting [1] was 24.5 nM.

Consider `CN(Cc1ccc(F)c(C(F)(F)F)c1)C(=O)C(F)(CCN1CCC(N(C)S(C)(=O)=O)CC1)c1ccc(Cl)c(Cl)c1` (centres unmarked) [Example 55, 2-(3,4-Dichloro-phenyl)-2-fluoro-N-(4-fluoro-3-trifluoromethyl-benzyl)-4-[4-(methanesulfonyl-methyl-amino)-piperidin-1-yl]-N-methyl-butyramide], for which the inhibition constant Ki under setting [1] is 23.4 nM.

On to `CN(Cc1ccc(Cl)c(Cl)c1)C(=O)C(F)(CCN1CCC(N(C)S(C)(=O)=O)CC1)c1ccc(Cl)c(Cl)c1` (centres unmarked) [Example 56, N-(3,4-Dichloro-benzyl)-2-(3,4-dichloro-phenyl)-2-fluoro-4-[4-(methanesulfonyl-methyl-amino)-piperidin-1-yl]-N-methyl-butyramide], for which the Ki under setting [1] was found to be 22.8 nM.

As for `CN(Cc1ccc(C(F)(F)F)c(F)c1)C(=O)C(C)(CCN1CCC(N(C2CC2)S(C)(=O)=O)CC1)c1ccc(Cl)c(Cl)c1` (centres unmarked) [Example 57, 4-[4-(Cyclopropyl-methanesulfonyl-amino)-piperidin-1-yl]-2-(3,4-dichloro-phenyl)-N-(3-fluoro-4-trifluoromethyl-benzyl)-2,N-dimethyl-butyramide], the Ki is, setting by setting: under setting [1], 5.9 nM; under setting [2], 5.9 nM. Turning to `CN(Cc1ccc(Cl)c(C(F)(F)F)c1)C(=O)C(C)(CCN1CCC(N(C2CC2)S(C)(=O)=O)CC1)c1ccc(Cl)c(Cl)c1` (centres unmarked) [Example 58, N-(4-Chloro-3-trifluoromethyl-benzyl)-4-[4-(cyclopropyl-methanesulfonyl-amino)-piperidin-1-yl]-2-(3,4-dichloro-phenyl)-2,N-dimethyl-butyramide], the Ki under setting [1] is 3.6 nM and the Ki under setting [2] worked out at 3.6 nM. With `CN(Cc1ccc(F)c(C(F)(F)F)c1)C(=O)C(C)(CCN1CCC(N(C2CC2)S(C)(=O)=O)CC1)c1ccc(Cl)c(Cl)c1` (centres unmarked) [Example 59, 4-[4-(Cyclopropyl-methanesulfonyl-amino)-piperidin-1-yl]-2-(3,4-dichloro-phenyl)-N-(4-fluoro-3-trifluoromethyl-benzyl)-2,N-dimethyl-butyramide], the Ki under setting [1] was 4.3 nM and the Ki under setting [2] was 4.3 nM. In the case of `CN(Cc1ccc(Cl)c(Cl)c1)C(=O)C(C)(CCN1CCC(N(C2CC2)S(C)(=O)=O)CC1)c1ccc(Cl)c(Cl)c1` (centres unmarked) [Example 60, 4-[4-(Cyclopropyl-methanesulfonyl-amino)-piperidin-1-yl]-N-(3,4-dichloro-benzyl)-2-(3,4-dichloro-phenyl)-2,N-dimethyl-butyramide], the Ki was 2.6 nM under setting [1] and 2.6 nM under setting [2]. On to `CN(Cc1ccc(C(F)(F)F)c(F)c1)C(=O)C(F)(CCN1CCC(NS(C)(=O)=O)CC1)c1ccc(Cl)c(Cl)c1` (centres unmarked) [Example 61, 2-(3,4-Dichloro-phenyl)-2-fluoro-N-(3-fluoro-4-trifluoromethyl-benzyl)-4-(4-methanesulfonyl-amino-piperidin-1-yl)-N-methyl-butyramide], for which the Ki under setting [1] came out at 80 nM. The same measure, in the same setting: for `CN(Cc1ccc(Cl)cc1)C(=O)C(F)(CCN1CCC(NS(C)(=O)=O)CC1)c1ccc(Cl)c(Cl)c1` (centres unmarked) [Example 62, N-(4-Chloro-benzyl)-2-(3,4-dichloro-phenyl)-2-fluoro-4-(4-methanesulfonyl-amino-piperidin-1-yl)-N-methyl-butyramide] the value was 105 nM; for `CN(Cc1ccc(Cl)c(C(F)(F)F)c1)C(=O)C(F)(CCN1CCC(NS(C)(=O)=O)CC1)c1ccc(Cl)c(Cl)c1` (centres unmarked) [Example 63, N-(4-Chloro-3-trifluoromethyl-benzyl)-2-(3,4-dichloro-phenyl)-2-fluoro-4-(4-methanesulfonyl-amino-piperidin-1-yl)-N-methyl-butyramide], 117 nM; for `CN(Cc1ccc(F)c(C(F)(F)F)c1)C(=O)C(F)(CCN1CCC(NS(C)(=O)=O)CC1)c1ccc(Cl)c(Cl)c1` (centres unmarked) [Example 64, 2-(3,4-Dichloro-phenyl)-2-fluoro-N-(4-fluoro-3-trifluoromethyl-benzyl)-4-(4-methanesulfonyl-amino-piperidin-1-yl)-N-methyl-butyramide], 122 nM.

Consider `CN(Cc1cccc(Cl)c1)C(=O)C(F)(CCN1CCC(NS(C)(=O)=O)CC1)c1ccc(Cl)c(Cl)c1` (centres unmarked) [Example 65, N-(3-Chlorobenzyl)-2-(3,4-dichloro-phenyl)-2-fluoro-4-(4-methanesulfonyl-amino-piperidin-1-yl)-N-methyl-butyramide], for which the Ki under setting [1] is 307 nM.

Take `CN(Cc1ccc(C(F)(F)F)cc1)C(=O)C(F)(CCN1CCC(NS(C)(=O)=O)CC1)c1ccc(Cl)c(Cl)c1` (centres unmarked) [Example 66, 2-(3,4-Dichloro-phenyl)-2-fluoro-4-(4-methanesulfonyl-amino-piperidin-1-yl)-N-methyl-N-(4-trifluoromethyl-benzyl)-butyramide]: the inhibitory constant (Ki) under setting [1] was 84.3 nM.
